Laboratory results: patent US20240180880A1, “METHODS OF USING EHMT2 INHIBITORS IN TREATING OR PREVENTING BLOOD DISORDERS” (Epizyme, Inc., priority 2017, published 2024)

Key:
[1] = system: Human CD34+ progenitor cells; assay: Human CD34+ progenitors assay for fetal hemoglobin induction, % HbF+ cells by FACS (healthy donors); format: cell-based; details: for Observed Induction of % HbF + Human Erythroid Progenitors: evaluated in the context of cell viability; for % HbF+ cells: 26% basal level
Excerpt: An in-vitro system to test the ability of compound to induce fetal hemoglobin expression was developed. This system used Human CD34+ progenitor cells freshly isolated from healthy donors blood collections. Peripheral blood mononuclear cells (PBMCs) were isolated from whole blood by density gradient centrifugation using SepMatem-50 and Lymphoprep™ from Stem Cell Technologies. CD34^+ hematopoietic progenitor cells (HSPCs) were isolated from PBMCs by magnetic separation using Stem Cells Technologies CD34+ positive selection/isolation kit (Stem Cell Technologies, #18056). CD34 cells were cultured using a 2-phase 14 day culture system. During phase 1 (day 0 to day 7) cells were expanded. Expansion was followed by phase 2 (day 7 to day 14) where cells were differentiated toward the erythroid lineage. Compounds were added on day 1 and day 7 as 1000× stock after being diluted in dimethyl sulfoxide (DMSO) in a 3-fold series. Final DMSO concentration in the assay was 0.1%. At day 14 cells were harvested for Fluorescent Activated Cell Sorting (FACS) analysis and for HbF quantitation by Mass spectrometry. For cell surface and intracellular marker analysis by FACS, cells were fixed and stained with a cocktail of antibodies covering erythroid lineage markers, HbF and H3 and H3K9me2 (Table 11). Data was collected using Canto II flow cytometer (BD Biosciences) and the FACSDiva software. Data was analyzed using FlowJo software. % HbF^+ cells and ratios H3/H3K9me2 intensities were calculated for CD71^+/CD235a^+ gated populations.
A list of pharmacological agents was evaluated for their potential to induce fetal Hemoglobin (HbF) in order to identify combination partners for our EHMT1/2 inhibitors. HbF can be induced by toxicity; therefore, the potential of the agents to induce HbF were evaluated in the context of cell viability. (Table 12). The EHMT1/2 inhibitor Compound 205 was evaluated in combination with a fixed dose of 10 μM Hydroxyurea and 0.1 μM Pomalidomide. […] 10 μM Hydroxyurea as a single agent was able to induce 01% HbF^+ cells from 26% basal level to 45% while 0.016 μM compound 205 as a single agent induced to 45%. In combination these two agents were able to induced % HbF^+ to 63% (FIG. 3A). […] 0.1 μM Pomalidomide as a single agent was able to induce ° % HbF cells from 26% basal level to 48% while 0.016 μM compound 205 as a single agent induced to 45%. In combination these two agents were able to induce % HbF^+ to 78% (FIG. 3B).
Hydroxyurea was also evaluated as single agent and in combination with the EHMT1/2 inhibitor compound 205 in a matrix format using CD34^+ cells isolated from a pool of 5 healthy donors. […] (FIG. 4 and FIG. 5, respectively). It is noted that for Loewe excess determination in Chalice, data was normalized to the highest and lowest Hbγ induction observed under the conditions and dose ranges in the assay.

[2] = system: human CD34+ progenitor cells isolated from SCD donors; assay: HbF pan-cellular induction by FACS in human CD34+ progenitor cells isolated from SCD donors; format: cell-based

Row | SMILES | Observed Induction of % HbF + Human Erythroid Progenitors [1] | also measured
1 | Nc1ccccc1NC(=O)c1ccc(CNC(=O)OCc2cccnc2)cc1 [Entinostat, entinostat] | Yes | –
2 | O=C(CCCCCCC(=O)Nc1ccccc1)NO [Vorinostat, vorinostat] | No | –
3 | CN(C)C(=N)N=C(N)N [Metformin] | Yes | –
4 | NC(=O)NO [Hydroxyurea, hydroxyurea, reference compound] | Yes | % HbF+ cells ([1]; 10 μM Hydroxyurea as a single agent): 45%; Fluorescence Intensity at which most of the positive cells are concentrated ([2]; 10 μM Hydroxyurea): ~10(4); % of HbF expressing cells ([2]; 10 μM Hydroxyurea, DMSO baseline 42.7%): 78.1%
5 | NC(CO)C(=O)NNCc1ccc(O)c(O)c1O (stereo not shown) [Benzerazide] | Very small | –
6 | CNc1cc(C)nc(Nc2ccc(OC)c(OC[C@H](O)CN3CCC3)c2)n1 [Compound D5R] | – | Fluorescence Intensity at which most of the positive cells are concentrated ([2]; 0.012 μM Compound D5R): ~10(3); % of HbF expressing cells ([2]; 0.012 μM Compound D5R, DMSO baseline 42.7%): 98.1%; % of HbF expressing cells ([2]; 10 μM Hydroxyurea in combination with 0.012 μM Compound D5R, DMSO baseline 42.7%): 99.8%; % HbF+ cells ([2]; Compound D5R dose response range (FIG. 6 ii-vi), DMSO baseline 42.7%): > 98%
7 | Nc1ccccc1NC(=O)c1cnccn1 [BG-45] | Yes | –
8 | Clc1ccc2c(c1)CCc1cccnc1C2=C1CCNCC1 [Desloratidine, desloratidine] | No | –
9 | Nc1cccc2c1C(=O)N(C1CCC(=O)NC1=O)C2=O (stereo not shown) [Pomalidomide, pomalidomide] | Yes | % HbF+ cells ([1]; 0.1 μM Pomalidomide as a single agent): 48%
